Assay results as given in US9888679B2, “Protection of progenitor cells and regulation of their differentiation” (Proteobioactives Pty Ltd, priority 2007, dated 2018).

System: Murine ATDC5 cell line
Assay: Proteoglycan biosynthesis (35S-GAG) in pellet cultures
Format: cell-based
Settings: 2 micrograms/mL; 6 day pellet culture; FIG. 12
Source text: FIG. 12. A bar graph of the concentration dependent effects of Pentosan Polysulfate (PPS), on the biosynthesis of Proteoglycans (PGs) as determined by the incorporation of radioactively labelled sulfate into the sulfated glycosaminoglycans (^35S-GAG) of PGs in 6 day pellet cultures of murine progenitor cells (ADTC-5). *=p<0.05 relative to control.
FIG. 22. A bar graph of the concentration dependent effects of rhNC4 (batch PBA-1202P) expressed by K. lactis, in the absence (maintenance media, MM) and presence of insulin (10 micrograms/mL) (differentiation media, DM), on the biosynthesis of Proteoglycans PGs) in pellet cultures of ATDC5 cells. Data is shown as the % change relative to controls taken to be 100%.
Murine Progenitor cells (cell lines C3H10T1/2 or ATDC5) purchased from RIKEN Cell Bank (Tsukuba, Japan) or human immunoselected Stro-1+ Progenitor cells (Mesoblast Ltd, Melbourne, Australia) were seeded in 2 ml screw-capped sterile centrifuge tubes and the total volume made-up to 1 ml with DMEM-High glucose medium containing 10% FBS. Progenitor cells were then centrifuged at 500 g for 10 min in a swing-out rotor at room temperature. The screw caps were loosened and the tubes placed in an incubator at 37° C., in a 5% CO2/95% air moist atmosphere. The pellets generally formed within 24 hours. Medium was changed daily in the first two days, then once every 2-3 days thereafter. On day 5 the medium was removed and to each tube was added 1 ml with DMEM-High glucose medium containing 10% FBS, 5.0 μCi/ml ^35S-H2SO4 and various concentrations of PPS (0, 0.1, 0.5, 1.0, 2.5, 5.0, 10.0, 20.0, μg/ml) (FIG. 12-15) or rhNC4 (0, 0.1, 0.5, 1.0, 2.0 μg/ml) (FIG. 22). Triplicate cultures were used for all concentration of drugs. The screw caps were loosened and the tubes placed in an incubator at 37° C., in a 5% CO2/95% moist air atmosphere […]. On day 6, 200 μl of stock papain solution [2.5 mg/ml papain, 7.9 mg/ml L-Cystein in papain buffer (0.1 M NaAC, 5 mM EDTA, pH6.0)] was added to each tube. The tubes were tightly capped and incubated at 65° C. for 2 hours. After papain digestion, 4 replicates of 200 μl of papain digested solution were separately transferred to a 96-well micro-titre plate (200 μl/well). The remaining solution was used for the DNA fluorometric assays which were undertaken in triplicate as described above. Biosynthesis of ^35S-GAGs was determined as described for the monolayer cultures and the results expressed as ^35-S-GAGs/μg DNA.
Data is shown as the % of controls taken to be 100%.

With pentosan polysulfate [PPS] the “increase of proteoglycan (PG) synthesis relative to control culture” value was 25%.
